Marks after values point to notes of the source that are not given here.

Three molecules from patent US20110039879A1, “METHODS FOR INCREASING WHITE BLOOD CELLS” (FibroGen ,Inc., priority 2007, published 2011) can be followed below.

Data set [1] deals with total white blood cell (WBC). Kind of data set: Chemotherapy (cisplatin)-induced leukopenia, total WBC by CBC. The class given is in vivo, Sprague Dawley rats. The settings on record: rats; for total white blood cell levels in the cisplatin-treated animals (in words): Compound S 60 mg/kg or Compound B 40 mg/kg oral gavage day 0, 2, 4; for Total WBC / Total WBC % Change from Control: blood day 4; for Total WBC % Change from Control: vs healthy control. As to the method: (§1) To examine the effect of compounds and methods of the present invention on increasing white blood cells, the following studies were performed. In one series of experiments, male Swiss-Webster mice were administered various compounds of the present invention via oral gavage using a ball-tipped gavage needle. Animals treated by oral gavage received a 10 ml/kg volume of either 0.5% carboxymethyl cellulose (CMC) with 0.1% Polysorbate 80 (vehicle control) or various doses (10-100 mg/kg) of a compound of the present invention in 0.5% CMC with 0.1% Polysorbate 80. Animals were dosed once daily for 3 or 4 days. […] The following study was performed to examine the effect of compounds and methods of the present invention on treatment of chemotherapy-induced leukopenia. Thirty-eight Sprague Dawley male rats (280-300 g) were obtained from Charles River Laboratories. Six rats served as healthy controls. On day 0, the remaining thirty-two rats were treated by intravenous injection (i.v.) with a single dose of cisplatin (CP) (Bedford Laboratories, Bedford Ohio) at 5 mg/kg and by oral gavage with one of the following: Compound S at 60 mg/kg; Compound B at 40 mg/kg; or vehicle 2 ml/kg. Compound was administered on day 0, day 2, and day 4 with the first dose given two hours before the CP injection. Blood samples (0.2 ml) were collected on day 4 as follows. Animals were anesthetized with isoflurane and 0.2 ml of blood was collected from the tail vein into a MICROTAINER EDTA-2K tube (Becton-Dickinson). Blood samples were processed to measure total white blood cell, neutrophil, and lymphocyte levels by CBC analysis as described above in Example 3.

The test system of data set [2] is lymphocytes. As to the kind of experiment: Chemotherapy (cisplatin)-induced leukopenia, lymphocytes by CBC. It counts as in vivo, Sprague Dawley rats. The settings on record: rats, blood day 4; for Lymphocytes % Change from Control: vs healthy control. As to the method: as §1
Data set [3] relates to total white blood cell (WBC). As to the kind of experiment: Total white blood cells by complete blood count, once daily dosing 3 or 4 days. It counts as in vivo, Swiss-Webster mice. The conditions noted are these: mice, oral gavage, blood 6 h after final dosing. As to the method: (§2) To examine the effect of compounds and methods of the present invention on increasing white blood cells, the following studies were performed. In one series of experiments, male Swiss-Webster mice were administered various compounds of the present invention via oral gavage using a ball-tipped gavage needle. Animals treated by oral gavage received a 10 ml/kg volume of either 0.5% carboxymethyl cellulose (CMC) with 0.1% Polysorbate 80 (vehicle control) or various doses (10-100 mg/kg) of a compound of the present invention in 0.5% CMC with 0.1% Polysorbate 80. Animals were dosed once daily for 3 or 4 days. Six hours after the final dosing, 200 μl blood samples were collected and total white blood cell, neutrophil, and lymphocyte levels were measured by complete blood count (CBC) using a CellDyn cell analyzer (Abbott Laboratories).

In data set [4] the test system is neutrophils in bone marrow. As to the kind of experiment: Neutrophils in bone marrow by FACS analysis. The class given is in vivo, Swiss-Webster mice. The settings on record: mice, oral gavage, tibia bone marrow 6 h after final dosing. As to the method:
(§3) Six hours after the final dosing, 200 μl blood samples were collected for detection of hematopoietic progenitor cells (HPCs) and neutrophils by FACS analysis using methods previously described. (See, e.g., Wang et al. (1997) J Leukoc Biol 62 503-9 and Legasse et al. (1996) J Immunol Methods 197:139-50.) Briefly, leukocytes and progenitor cells were isolated from whole blood samples following erythrocyte depletion using red blood cell lysis buffer (eBioscience) according to the manufacturer's instructions. The remaining cells were incubated for one hour with monoclonal antibodies directed against mouse Sca-1 and mouse c-Kit (cell surface markers for HPCs, BD Pharmingen), or mouse Mac-1 and mouse Gr-1 (cell surface markers for murine neutrophils, BD Pharmingen). Following incubation with the monoclonal antibodies, the cells were washed three times with sort buffer (PBS, 1% fetal bovine serum) and resuspended in sort buffer containing 50 μg/ml of propidium iodide. Samples were then analyzed for the presence and quantitation of HPCs and neutrophils by flow cytometry (FACS Calibur, Becton Dickinson). The cytometer was set to acquire 10 000 events. Two or three blood samples obtained from each animal were analyzed and the average recorded. Hematopoietic progenitor cells were determined as double positive Sca-1+/c-Kit+ cells and neutrophils were determined as double positive Mac-1+/Gr-1+ cells.
(§4) To examine the effect of compounds and methods of the present invention on hematopoietic progenitor cell (HPC) and neutrophil levels in bone marrow, the following studies were performed. Male Swiss-Webster mice were administered various compounds of the present invention via oral gavage using a ball-tipped gavage needle. Animals treated by oral gavage received a 10 ml/kg volume of either 0.5% carboxymethyl cellulose (CMC) with 0.1% Polysorbate 80 (vehicle control) or various doses (10-100 mg/kg) of a compound of the present invention in 0.5% CMC with 0.1% Polysorbate 80. Animals were dosed once daily for 3 or 4 days. Six hours after the final dosing, bone marrow samples were taken from one tibia of each animal and suspended in buffer (PBS with 1% fetal bovine serum). Bone marrow suspensions were then filtered through nylon filters to remove stromal cells. Following filtration, the remaining cells were counted manually using a hemocytometer. Detection and quantitation of HPCs and neutrophils were performed by FACS analysis as described above in Example 1.
On the technique in general: Flow cytometry measures light scatter and fluorescence of single cells or particles in a stream.

Data set [5] deals with lymphocytes. Kind of data set: Lymphocytes by complete blood count, once daily dosing 3 or 4 days. The class given is in vivo, Swiss-Webster mice. The settings on record: mice, oral gavage, blood 6 h after final dosing, CBC. As to the method:
as §2

Data set [6] concerns neutrophils. Kind of data set: Chemotherapy (cisplatin)-induced leukopenia, neutrophils by CBC. It counts as in vivo, Sprague Dawley rats. The conditions noted are these: rats, blood day 4; for Neutrophils % Change from Control: vs healthy control. As to the method:
as §1

Data set [7] concerns hematopoietic progenitor cells (HPCs) in bone marrow. Kind of data set: Hematopoietic progenitor cells in bone marrow by FACS analysis. The class given is in vivo, Swiss-Webster mice. The settings on record: mice, oral gavage, tibia bone marrow 6 h after final dosing. As to the method:
as §3, §4

The test system of data set [8] is hematopoietic progenitor cells (HPCs). Kind of data set: Hematopoietic progenitor cells (Sca-1+/c-Kit+) in blood by FACS analysis. The settings on record: mice, oral gavage, blood 6 h after final dosing. The class given is in vivo, Swiss-Webster mice. As to the method: (§5) To examine the effect of compounds and methods of the present invention on hematopoietic progenitor cell (HPC) and neutrophil levels, the following studies were performed. Male Swiss-Webster mice were administered various compounds of the present invention via oral gavage using a ball-tipped gavage needle. Animals treated by oral gavage received a 10 ml/kg volume of either 0.5% carboxymethyl cellulose (CMC) with 0.1% Polysorbate 80 (vehicle control) or various doses (10-100 mg/kg) of a compound of the present invention in 0.5% CMC with 0.1% Polysorbate 80. Animals were dosed once daily for 3 or 4 days.
as §3

The subject of data set [9] is neutrophils. Kind of data set: Neutrophils by complete blood count, once daily dosing 3 or 4 days. The class given is in vivo, Swiss-Webster mice. The conditions noted are these: mice, oral gavage, blood 6 h after final dosing, CBC. As to the method:
as §2

The test system of data set [10] is neutrophils. Kind of data set: Neutrophils (Mac-1+/Gr-1+) in blood by FACS analysis. The conditions noted are these: mice, oral gavage, blood 6 h after final dosing. The class given is in vivo, Swiss-Webster mice. As to the method:
as §5, §3

Setting [11] is: cisplatin 5 mg/kg i.v. day 0, compound 40 mg/kg oral gavage day 0, day 2, day 4.
[12] abbreviates: 100 mg/kg once daily for 4 days.
The mark [13] stands for this setting: cisplatin 5 mg/kg i.v. day 0, compound 60 mg/kg oral gavage day 0, day 2, day 4.
Setting [14] is: cisplatin 5 mg/kg i.v. single dose day 0 plus vehicle by oral gavage.

As to `Cc1nc(C(=O)NCC(=O)O)c(O)c2ccc(Oc3ccccc3)cc12` [Compound B, [(4-Hydroxy-1-methyl-7-phenoxy-isoquinoline-3-carbonyl)-amino]-acetic acid], the “total white blood cell levels in the cisplatin-treated animals (in words)” value in [1] (5 mg/kg cisplatin, day 4) is reported as “increased total white blood cell levels”. Further, the “Total WBC” value in [1] (setting [11]) is recorded as 16.8 10^3 cells/μl. The “Total WBC % Change from Control” value in data set [1] (cisplatin 5 mg/kg i.v. day 0, compound 40 mg/kg oral gavage day 0, day 2, day 4, reduction not statistically significant) was −1* %. Besides, in data set [2] (setting [11]), the Lymphocytes was 14.7 10^3 cells/μl and the “Lymphocytes % Change from Control” value worked out at 9%. Further, in [3] (60 mg/kg once daily for 3 days), the “Total WBC” value is listed as 8.80 10^3 cells/μl and the “Total WBC % Increase Over Control” value was found to be 82%. For the same molecule, in [3] (setting [12]), the “Total WBC” value is recorded as 10.24 10^3 cells/μl and the “Total WBC % Increase Over Control” value is recorded as 94%. In data set [4] (60 mg/kg once daily for 3 days), the “Percent Bone Marrow Neutrophils” value came out at 34.7 % gated cells and the “Percent Bone Marrow Neutrophils Fold Increase Over Control” value came out at 1.1 fold. Further, in data set [4] (setting [12]), the “Percent Bone Marrow Neutrophils” value was found to be 33.6 % gated cells and the “Percent Bone Marrow Neutrophils Fold Increase Over Control” value is 1.3 fold. For the same molecule, in data set [5] (60 mg/kg once daily for 3 days), the Lymphocytes is on record as 7.40 10^3 cells/μl and the “Lymphocytes % Increase Over Control” value is recorded as 82%. Further, in data set [5] (setting [12]), the Lymphocytes is 9.18 10^3 cells/μl and the “Lymphocytes % Increase Over Control” value came to 101%. Also, in data set [6] (setting [11]), the Neutrophils is on record as 2.2 10^3 cells/μl and the “Neutrophils % Change from Control” value is 7%. Besides, in data set [7] (60 mg/kg once daily for 3 days), the “Percent Bone Marrow HPCs” value is on record as 6.3 % gated cells and the “Percent Bone Marrow HPCs Fold Increase Over Control” value stood at 1.7 fold. In addition, in data set [7] (setting [12]), the “Percent Bone Marrow HPCs” value came to 7.0 % gated cells and the “Percent Bone Marrow HPCs Fold Increase Over Control” value is 1.6 fold. For the same molecule, in [8] (60 mg/kg once daily for 3 days), the “Blood HPCs” value was found to be 67 cells/μl, the “Blood HPCs Fold Increase Over Control” value amounted to 1.5 fold, the “Percent Blood HPCs” value was found to be 0.7 % gated cells and the “Percent Blood HPCs Fold Increase Over Control” value is given as 1.1 fold. For the same molecule, in data set [8] (setting [12]), the “Blood HPCs” value is listed as 126 cells/μl, the “Blood HPCs Fold Increase Over Control” value worked out at 7.4 fold, the “Percent Blood HPCs” value is 1.2 % gated cells and the “Percent Blood HPCs Fold Increase Over Control” value is recorded as 3.8 fold. Further, in [9] (60 mg/kg once daily for 3 days), the Neutrophils is listed as 1.28 10^3 cells/μl and the “Neutrophils % Increase Over Control” value turned out to be 110%. Besides, in [9] (setting [12]), the Neutrophils is 0.96 10^3 cells/μl and the “Neutrophils % Increase Over Control” value was found to be 66%. Moreover, in data set [10] (60 mg/kg once daily for 3 days), the “Blood Neutrophils” value came to 126 cells/μl, the “Blood Neutrophils Fold Increase Over Control” value is listed as 1.3 fold, the “Percent Blood Neutrophils” value is 1.2 % gated cells and the “Percent Blood Neutrophils Fold Increase Over Control” value was found to be 0.9 fold. Further, in data set [10] (setting [12]), the “Blood Neutrophils” value is 936 cells/μl, the “Blood Neutrophils Fold Increase Over Control” value came out at 5.3 fold, the “Percent Blood Neutrophils” value worked out at 9.1 % gated cells and the “Percent Blood Neutrophils Fold Increase Over Control” value was 2.7 fold.

`O=C(O)CNC(=O)c1nc(Cl)c2ccccc2c1O` [Compound S, [(1-Chloro-4-hydroxy-isoquinoline-3-carbonyl)-amino]-acetic acid]: the “total white blood cell levels in the cisplatin-treated animals (in words)” value in [1] (5 mg/kg cisplatin, day 4) was “increased total white blood cell levels”. In addition, in data set [1] (setting [13]), the “Total WBC” value is 20.2 10^3 cells/μl and the “Total WBC % Change from Control” value is listed as 19%. In [2] (setting [13]), the Lymphocytes is listed as 16.2 10^3 cells/μl and the “Lymphocytes % Change from Control” value turned out to be 21%. Also, in data set [6] (setting [13]), the Neutrophils was 2.2 10^3 cells/μl and the “Neutrophils % Change from Control” value was 7%.

For the molecule `N.N.[Cl][Pt][Cl]` [cisplatin, reference compound], the “reduction of total white blood cell levels compared to non-treated control animals” value in data set [1] (5 mg/kg cisplatin, day 4) was 21%. Besides, in [1] (setting [14]), the “Total WBC” value was 13.3 10^3 cells/μl and the “Total WBC % Change from Control” value was −21%. Besides, in data set [2] (setting [14]), the Lymphocytes is reported as 10.1 10^3 cells/μl and the “Lymphocytes % Change from Control” value was −24%. In addition, in data set [6] (setting [14]), the Neutrophils was 1.6 10^3 cells/μl and the “Neutrophils % Change from Control” value is −22%.
